Results published in ChEMBL document CHEMBL3585264 (J Med Chem, 2015).

Experiments:
[1] = Cmax in rat at 5 mg/kg, po; type: ADME, organism-based; parameters: dose 5 mg/kg, route oral; details: in vivo
[2] = (§1) Tmax in rat at 5 mg/kg, po; type: ADME, organism-based; details: in vivo
[3] = AUC (0 to infinity) in rat at 5 mg/kg, po; type: ADME, organism-based; parameters: dose 5 mg/kg, time infinity, route oral; details: in vivo
Rattus norvegicus = test: as §1; type: ADME, organism-based; details: in vivo, BLD = below limit of detection
[4] = Mean residence time in rat at 2 mg/kg, iv; type: ADME, organism-based; details: in vivo
[5] = Oral bioavailability in rat at 5 mg/kg; type: ADME, organism-based; details: in vivo
[6] = Oral bioavailability in mouse at 5 mg/kg; type: ADME, organism-based; details: in vivo
[7] = Plasma concentration in CB17 SCID mouse xenografted with human PC3 cells at 10 mg/kg, po measured at 1 hr by LC/MS-MS analysis; type: ADME, organism-based, PC-3
[8] = Plasma concentration in CB17 SCID mouse xenografted with human PC3 cells at 1 mg/kg, po measured at 1 hr by LC/MS-MS analysis; type: ADME, organism-based, PC-3
[9] = Plasma concentration in CB17 SCID mouse xenografted with human PC3 cells at 10 mg/kg, po measured at 10 hrs by LC/MS-MS analysis; type: ADME, organism-based, PC-3
[10] = Plasma concentration in CB17 SCID mouse xenografted with human PC3 cells at 10 mg/kg, po measured at 24 hrs by LC/MS-MS analysis; type: ADME, organism-based, PC-3
[11] = Plasma concentration in CB17 SCID mouse xenografted with human PC3 cells at 1 mg/kg, po measured at 10 hrs by LC/MS-MS analysis; type: ADME, organism-based, PC-3
[12] = Oral bioavailability in dog at 0.3 mg/kg; type: ADME, organism-based, Canis lupus familiaris; details: in vivo
[13] = Plasma concentration in CB17 SCID mouse xenografted with human PC3 cells at 10 mg/kg, po measured at 3 hrs by LC/MS-MS analysis; type: ADME, organism-based, PC-3
[14] = Plasma concentration in CB17 SCID mouse xenografted with human PC3 cells at 1 mg/kg, po measured at 6 hrs by LC/MS-MS analysis; type: ADME, organism-based, PC-3
[15] = Plasma concentration in CB17 SCID mouse xenografted with human PC3 cells at 10 mg/kg, po measured at 6 hrs by LC/MS-MS analysis; type: ADME, organism-based, PC-3
[16] = Plasma concentration in CB17 SCID mouse xenografted with human PC3 cells at 1 mg/kg, po measured at 24 hrs by LC/MS-MS analysis; type: ADME, organism-based, PC-3
[17] = Plasma concentration in CB17 SCID mouse xenografted with human PC3 cells at 1 mg/kg, po measured at 3 hrs by LC/MS-MS analysis; type: ADME, organism-based, PC-3

O=C1CN(CCC2CCOCC2)c2nc(-c3ccc(-c4nc[nH]n4)nc3)cnc2N1
Cmax [1]: 20 nM | Tmax [2]: 0.9 h | AUC(0-inf) [3]: 0.18 µM·h

O=C1CN(CCC2CCOCC2)c2nc(-c3ccc(-c4nc[nH]n4)cc3)cnc2N1
Tmax (Rattus norvegicus): BLD

CCN1CC(=O)Nc2ncc(-c3ccc(-c4nc[nH]n4)nc3C)nc21
MRT [4]: 1.2 h | Cmax [1]: 550 nM | bioavailability [5]: 50% | AUC(0-inf) [3]: 5.27 µM·h

CCN1C(=O)CNc2ncc(-c3ccc(-c4nc[nH]n4)nc3C)nc21 [CC-115]
bioavailability [6]: 53% | concentration at 1 h [7]: 6780 nM | MRT [4]: 4.3 h | Cmax [1]: 1670 nM | concentration at 1 h [8]: 530 nM | concentration at 10 h [9]: 1180 nM | concentration at 24 h [10]: 800 nM | concentration at 10 h [11]: 120 nM | bioavailability [5]: 78% | bioavailability [12]: 100% | concentration at 3 h [13]: 5690 nM | concentration at 6 h [14]: 130 nM | concentration at 6 h [15]: 2100 nM | AUC(0-inf) [3]: 27.5 µM·h | concentration at 24 h [16]: 5 nM | concentration at 3 h [17]: 340 nM
